What follows are compounds tested against T1, recombinant human MetAP2 (Homo sapiens, UniProt P50579) (assay: Inhibition of recombinant human MetAP2 activity (MAS substrate, amino acid oxidase/Amplex red fluorescence)). Details: manganese enzyme, 30 minutes at 25° C., pH 7.5, 0.75 mM MAS substrate, 1% DMSO.
T1 construct: made in house; host or cells: Sf9 insect cells
T1 sequence (P50579 whole entry): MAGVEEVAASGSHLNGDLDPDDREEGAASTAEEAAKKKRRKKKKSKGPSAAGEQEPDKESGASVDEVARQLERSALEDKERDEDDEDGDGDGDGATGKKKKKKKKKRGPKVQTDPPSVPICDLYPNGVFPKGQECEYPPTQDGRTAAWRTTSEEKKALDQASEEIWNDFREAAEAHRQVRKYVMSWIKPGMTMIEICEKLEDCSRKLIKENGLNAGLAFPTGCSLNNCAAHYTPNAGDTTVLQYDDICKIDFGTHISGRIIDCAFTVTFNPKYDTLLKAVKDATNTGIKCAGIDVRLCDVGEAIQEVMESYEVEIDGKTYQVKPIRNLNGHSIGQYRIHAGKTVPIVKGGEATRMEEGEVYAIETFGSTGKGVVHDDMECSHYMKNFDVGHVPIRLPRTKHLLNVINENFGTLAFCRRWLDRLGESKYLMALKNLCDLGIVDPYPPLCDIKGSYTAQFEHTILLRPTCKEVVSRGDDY
Format: biochemical
Method: Compounds are tested for their capacity to inhibit recombinant human MetAP2 activity using the following assay.
Human recombinant MetAP2 expressed in Sf9 cells followed by affinity purification and EDTA treatment to remove endogenous active site cation was dialysed against MnCl2 to produce the manganese enzyme used in the assay. The assay was carried out for 30 minutes at 25° C. in 50 mM HEPES buffer containing 100 mM NaCl, pH 7.5 the presence of 0.75 mM Methionine-Alanine-Serine (MAS) substrate and 50 μg/ml amino acid oxidase using a dilution of purified MetAP2 giving >3-fold signal:noise. Cleavage of the substrate by MetAP2 and oxidation of free methionine by amino acid oxidase was detected and quantified using fluorescence generated by Amplex red (10-acetyl-3,7-dihydroxyphenoxazine) in combination with horseradish peroxidase which detects H2O2 released during the oxidation step. The fluorescent signal was detected using a multiwell fluorimeter. Compounds were diluted in DMSO prior to addition to assay buffer, the final DMSO concentration in the assay being 1%.
The IC50 is defined as the concentration at which a given compound achieves 50% inhibition of control. IC50 values are calculated using the XLfit software package (version 2.0.5).
`CCN(CC)CCCc1cc(F)ccc1S(=O)(=O)Nc1cc(F)c2c(c1C(=O)O)OCC1CC21` (racemic) [(1aRS,7bSR)-5-[2-(3-Diethylaminopropyl)-4-fluorobenzenesulfonylamino]-7-fluoro-1,1a,2,7b-tetrahydrocyclopropa[c]chromene-4-carboxylic acid] was tested, and the IC50 was > 50 nM.
For `CCN1CC[C@@H](Cc2cc(F)ccc2S(=O)(=O)Nc2cc(F)c3c(c2C(=O)O)OCC2CC32)C1` (mixture of isomers) [(1aRS,7bSR)-5-[2-((R)-1-Ethylpyrrolidin-3-ylmethyl)-4-fluorobenzene-sulfonylamino]-7-fluoro-1,1a,2,7b-tetrahydrocyclopropa[c]chromene-4-carboxylic acid], the IC50 was < 50 nM.
`CCN(CC)C/C=C\c1cc(F)ccc1S(=O)(=O)Nc1c(F)cc2c(c1C(=O)O)OCC1CC21` (racemic) [(1aRS,7bSR)-5-[2-((Z)-3-Diethylaminoprop-1-enyl)-4-fluorobenzene-sulfonylamino]-6-fluoro-1,1a,2,7b-tetrahydrocyclopropa[c]chromene-4-carboxylic acid] was tested, and the IC50 was > 50 nM.
With `CCN(CC)C/C=C\c1cc(F)ccc1S(=O)(=O)Nc1cc(F)c2c(c1C(=O)O)OCC1CC21` (racemic) [(1aRS,7bSR)-5-[2-((Z)-3-Diethylaminoprop-1-enyl)-4-fluorobenzenesulfonyl-amino]-7-fluoro-1,1a,2,7b-tetrahydrocyclopropa[c]chromene-4-carboxylic acid] the IC50 was < 50 nM.

Source: patent US10174009B2, “Tricyclic sulphonamide compounds and methods of making and using same” (Zafgen, Inc., priority 2012, dated 2019)
